Measurements reported in patent US20240254118A1, “PRMT5 INHIBITORS AND USES THEREOF” (Gilead Sciences, Inc., priority 2022, published 2024).
Where two headings read alike, the source gives them in different places.

What was measured:
[1] = system: SDMA signal (PRMT5 inhibition) in HCT116 MTAP-deleted cells; test: Symmetric di-methyl arginine image-based high content screen assay (SDMA assay), HCT116 MTAP-deleted; assay type: cell-based; settings: for EC50: Homo sapiens, HCT-116, 72 h, read-out: EC50 (SDMA assay); for EC50 selectivity (SDMA assay): taken as HCT116 WT versus MTAP-deleted
Protocol: Symmetric di-methyl arginine image-based high content screen assay (SDMA assay) was performed in HCT116 WT and HCT116 MTAP-deleted cell lines to measure Symmetric Di-methyl Arginine (SDMA) signal reduction after selective PRMT5 inhibition in the MTAP-deleted cells.
Briefly, the same compound plates were generated as mentioned in the previous section of Cell viability assay on Day −1.
On Day 3, the cells were fixed by adding 45 μl of 8% neutralized formalin solution to each well using EL460 liquid dispenser 5 μl cassette and the cells were incubated for 30 minutes at room temperature. The formalin solution was washed off with […] phosphate buffered saline (dPBS), the 0.1% Triton X-100 solution in dPBS was used to permeabilize the cells for 15 minutes at room temperature. The triton solution was aspirated, 50 μl of Odyssey Blocking buffer+0.05% Tween20 was added and the plate was incubated at room temperature for 30 minutes.
The blocking solution was removed, a 20 μl of SDMA antibody (Cell Signaling Technology, Cat no. 13222) diluted 1:500 in Odyssey Blocking buffer+0.05% Tween20 was added and the plate was incubated at 4° C. overnight. Next day, the primary SDME antibody solution was washed from each well three times with 0.05% Tween20 in dPBS (PBST).
A 30 μl of the secondary antibody, a Goat anti-Rabbit Alexa Fluor Plus 488 (Invitrogen, Cat no. PIA32731) was diluted 1:500 in Odyssey Blocking buffer+0.05% Tween20 and the plate was incubated for 1.5 hours in dark at room temperature. The secondary antibody solution was removed, 30 μl of 5 mg/ml DAPI solution diluted 1:2000 in dPBS was added and the plate was incubated for 30 minutes in dark at room temperature. The DAPI solution was aspirated and the wells were washed six times with dPBS.
The SDMA signal and DAPI signal per cell were counted using a Cellomics CX7 LZR instrument reading under 488 and 405 nm laser, respectively. The SDMA signal was quantified by mean average intensity per cell from Alexa Fluor Plus 488 after the cell was defined with DAPI.

[2] = system: HCT116 MTAP-deleted cells; test: Cell viability assay (CellTiter-Glo, 7 days), HCT116 MTAP-deleted; settings: Homo sapiens, HCT-116, 168 h
[3] = SDMA assay, 3 days of treatment, cell line not given, taken as HCT116 MTAP-deleted

Row | Compound | EC50 [1, 3] | EC50 selectivity (SDMA assay) ([1]; SDMA assay) | CC50 [2] | EC50 [1]
1 | CC(=O)N(C)N(Cc1nc2cc(C(F)(F)F)ccc2s1)C(=O)c1ccc2nc(N)c3cnn(C)c3c2c1 [Example 1] | < 1 nM | 122 | < 100 nM | 
2 | Cn1ncc2c(N)nc3ccc(C(=O)N(Cc4ccc(C(F)(F)F)cc4F)N4CCCCC4=O)cc3c21 [Example 2, 4-amino-N-(2-fluoro-4-(trifluoromethyl)benzyl)-1-methyl-N-(2-oxopiperidin-1-yl)-1H-pyrazolo[4,3-c]quinoline-8-carboxamide] | < 1 nM | 25 | < 100 nM | 
3 | Cn1ncc2c(N)nc3ccc(C(=O)N(Cc4ccc(C(F)(F)F)cc4)N4CCCOC4=O)cc3c21 [Example 3, 4-amino-1-methyl-N-(2-oxo-1,3-oxazinan-3-yl)-N-(4-(trifluoromethyl)benzyl)-1H-pyrazolo[4,3-c]quinoline-8-carboxamide] | < 1 nM | 123 | < 100 nM | 
4 | Cn1ncc2c(N)nc3ccc(C(=O)N(Cc4ccc(C(F)(F)F)cn4)N4CCN(CC(F)(F)F)C4=O)cc3c21 [Example 4, 4-amino-1-methyl-N-(2-oxo-3-(2,2,2-trifluoroethyl)imidazolidin-1-yl)-N-((5-(trifluoromethyl)pyridin-2-yl)methyl)-1H-pyrazolo [4,3-c]quinoline-8-carboxamide] | 1 to 5 nM | 327 | < 100 nM | 
5 | CN(C(=O)Oc1ccccc1)N(Cc1ccc(C(F)(F)F)cn1)C(=O)c1ccc2nc(N)c3cnn(C)c3c2c1 [Example 14, Phenyl 2-(4-amino-1-methyl-1H-pyrazolo[4,3-c]quinoline-8-carbonyl)-1-methyl-2-((5-(trifluoromethyl)pyridin-2-yl)methyl)hydrazine-1-carboxylate] |  | 148 | < 100 nM | 1 to 5 nM
6 | Cn1ncc2c(N)nc3ccc(C(=O)N(Cc4ccc(C(F)(F)F)cn4)N4CC5(CCC5)OC4=O)cc3c21 [Example 17, 4-amino-1-methyl-N-(6-oxo-5-oxa-7-azaspiro[3.4]octan-7-yl)-N-[[5-(trifluoromethyl)-2-pyridyl]methyl]pyrazolo[4,3-c]quinoline-8-carboxamide] | < 1 nM | 502 | < 100 nM | 
7 | CC(=O)N(C)N(Cc1ccn(-c2cccc(F)c2)n1)C(=O)c1ccc2nc(N)c3cnn(C)c3c2c1 [Example 435, N′-acetyl-4-amino-N-((1-(3-fluorophenyl)-1H-pyrazol-3-yl)methyl)-N′,1-dimethyl-1H-pyrazolo[4,3-c]quinoline-8-carbohydrazide] |  |  | < 100 nM | 
8 | CC(=O)N(C)N(Cc1ccn(-c2ccccc2F)n1)C(=O)c1ccc2nc(N)c3cnn(C)c3c2c1 [Example 436, N′-acetyl-4-amino-N-((1-(2-fluorophenyl)-1H-pyrazol-3-yl)methyl)-N′,1-dimethyl-1H-pyrazolo[4,3-c]quinoline-8-carbohydrazide] |  |  | < 100 nM | 
9 | CC(=O)N(C)N(Cc1ccn(-c2ccc(F)cc2F)n1)C(=O)c1ccc2nc(N)c3cnn(C)c3c2c1 [Example 440, N′-acetyl-4-amino-N-((1-(2,4-difluorophenyl)-1H-pyrazol-3-yl)methyl)-N′,1-dimethyl-1H-pyrazolo[4,3-c]quinoline-8-carbohydrazide] |  |  | < 100 nM | 
10 | CC(=O)N(C)N(Cc1ccn(-c2c(F)cccc2F)n1)C(=O)c1ccc2nc(N)c3cnn(C)c3c2c1 [Example 441, N′-acetyl-4-amino-N-((1-(2,6-difluorophenyl)-1H-pyrazol-3-yl)methyl)-N′,1-dimethyl-1H-pyrazolo[4,3-c]quinoline-8-carbohydrazide] |  |  | < 100 nM | 
11 | CN(C(=O)C1CC1)N(Cc1ncc(C(F)(F)F)cc1Cl)C(=O)c1ccc2nc(N)c3cnn(C)c3c2c1 [Example 446, 4-amino-N-((3-chloro-5-(trifluoromethyl)pyridin-2-yl)methyl)-N′-(cyclopropanecarbonyl)-N′,1-dimethyl-1H-pyrazolo[4,3-c]quinoline-8-carbohydrazide] |  |  | < 100 nM | 

More lines, main results first:

Row | EC50 [1, 3] | EC50 selectivity (SDMA assay) ([1]; SDMA assay) | Compound | CC50 [2] | EC50 [1]
12 | < 1 nM | 137 | C[C@H]1CN(N(Cc2ccc(C(F)(F)F)cn2)C(=O)c2ccc3nc(N)c4cnn(C)c4c3c2)C(=O)O1 (single isomer, unassigned) [Example 8] | < 100 nM | 
13 | < 1 nM | 180 | C[C@@H]1CN(N(Cc2ccc(C(F)(F)F)cn2)C(=O)c2ccc3nc(N)c4cnn(C)c4c3c2)C(=O)O1 (single isomer, unassigned) [Example 9] | < 100 nM | 
14 | < 1 nM | 266 | Cn1ncc2c(N)nc3ccc(C(=O)N(Cc4ccc(OC(F)F)cc4)N4CCCOC4=O)cc3c21 [Example 5, 4-amino-N-(4-(difluoromethoxy)benzyl)-1-methyl-N-(2-oxo-1,3-oxazinan-3-yl)-1H-pyrazolo[4,3-c]quinoline-8-carboxamide] | < 100 nM | 
15 | < 1 nM | 286 | CC(=O)N(c1ccccc1)N(Cc1ccc(C(F)(F)F)cn1)C(=O)c1ccc2nc(N)c3cnn(C)c3c2c1 [Example 6, N′-acetyl-4-amino-1-methyl-N′-phenyl-N-((5-(trifluoromethyl)pyridin-2-yl)methyl)-1H-pyrazolo[4,3-c]quinoline-8-carbohydrazide] | < 100 nM | 
16 | < 1 nM | 62 | CN1CCN(N(Cc2ccc(C(F)(F)F)cc2F)C(=O)c2ccc3nc(N)c4cnn(C)c4c3c2)C1=O [Example 7, 4-amino-N-(2-fluoro-4-(trifluoromethyl)benzyl)-1-methyl-N-(3-methyl-2-oxoimidazolidin-1-yl)-1H-pyrazolo[4,3-c]quinoline-8-carboxamide] | < 100 nM | 
17 | < 1 nM | 180 | Cn1ncc2c(N)nc3ccc(C(=O)N(Cc4ccc(C(F)(F)F)cn4)N4CCCOC4=O)cc3c21 [Example 10, 4-amino-1-methyl-N-(2-oxo-1,3-oxazinan-3-yl)-N-((5-(trifluoromethyl)pyridin-2-yl)methyl)-1H-pyrazolo[4,3-c]quinoline-8-carboxamide] | < 100 nM | 
18 | < 1 nM | 245 | Cn1ncc2c(N)nc3ccc(C(=O)N(Cc4ccc(C(F)(F)F)cn4)N4C(=O)[C@H]5CC[C@@H]4C5)cc3c21 [Example 11, 4-amino-1-methyl-N-[(1R,4S)-3-oxo-2-azabicyclo[2.2.1]heptan-2-yl]-N-[[5-(trifluoromethyl)-2-pyridyl]methyl]pyrazolo[4,3-c]quinoline-8-carboxamide] | < 100 nM | 
19 | < 1 nM | 128 | Cn1ncc2c(N)nc3ccc(C(=O)N(Cc4ccc(C(F)(F)F)cn4)N4CC(F)(F)CCC4=O)cc3c21 [Example 13, 4-amino-N-(5,5-difluoro-2-oxo-1-piperidyl)-1-methyl-N-[[5-(trifluoromethyl)-2-pyridyl]methyl]pyrazolo[4,3-c]quinoline-8-carboxamide] | < 100 nM | 
20 | 1 to 5 nM | 23 | Cn1ncc2c(N)nc3ccc(C(=O)N(Cc4ccc(C(F)(F)F)c(F)c4)N4CCCC4=O)cc3c21 [Example 15, 4-amino-N-(3-fluoro-4-(trifluoromethyl)benzyl)-1-methyl-N-(2-oxopyrrolidin-1-yl)-1H-pyrazolo[4,3-c]quinoline-8-carboxamide] | < 100 nM | 
21 | < 1 nM | 306 | COc1ccc(CN(C(=O)c2ccc3nc(N)c4cnn(C)c4c3c2)N(C)C(C)=O)c(F)c1 [Example 16, N′-acetyl-4-amino-N-(2-fluoro-4-methoxybenzyl)-N′,1-dimethyl-1H-pyrazolo[4,3-c]quinoline-8-carbohydrazide] | < 100 nM | 
22 | < 1 nM | 61 | COc1nc(C(F)(F)F)ccc1CN(C(=O)c1ccc2nc(N)c3cnn(C)c3c2c1)N(C)C(C)=O [Example 18, N′-acetyl-4-amino-N-[[2-methoxy-6-(trifluoromethyl)-3-pyridyl]methyl]-N′, 1-dimethyl-pyrazolo[4,3-c]quinoline-8-carbohydrazide] | < 100 nM | 
23 | < 1 nM | 93 | COc1cc(C(F)(F)F)ccc1CN(C(=O)c1ccc2nc(N)c3cnn(C)c3c2c1)N(C)C(C)=O [Example 19, N′-acetyl-4-amino-N-[[2-methoxy-4-(trifluoromethyl)phenyl]methyl]-N′,1-dimethyl-pyrazolo[4,3-c]quinoline-8-carbohydrazide] | < 100 nM | 
